Measured values: ChEMBL document CHEMBL1201862, “PubChem BioAssay data set” (2004)
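Step 1: Grow cells in 96-well plates. Step 2: Expose to compound for 48 hours at 5 concentrations. Step 3: Interpolate endpoints linearly; if unreached, use highest concentration. GI50: concentration for 50% inhibition of growth.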 Activity calls are given as the source filed them. Cut-off read from the data, not from the text of the source: active = GI50 up to about 1.1 µM and inactive = higher.

Columns and labels:
Assay in all cases: DTP human tumour cell line panel, 48 h
[1] = system: 786-0
[2] = system: CCRF-CEM
[3] = system: COLO 205
[4] = system: DU-145
[5] = system: HCT-116
[6] = system: HCT-15
[7] = system: KM12
[8] = system: M14
[9] = system: MOLT-4
[10] = system: OVCAR-3
[11] = system: OVCAR-5
[12] = system: SF-539
[13] = system: SN12C
[14] = system: SR
[15] = system: T47D
[16] = system: TK-10
[17] = system: UO-31
[18] = system: DMS-114
[19] = system: SNB-78

SMILES | GI50 [1] | GI50 [2] | GI50 [3] | GI50 [4] | GI50 [5] | GI50 [6] | GI50 [7] | GI50 [8] | GI50 [9] | GI50 [10] | GI50 [11] | GI50 [12] | GI50 [13] | GI50 [14] | GI50 [15] | GI50 [16] | GI50 [17] | GI50 [18] | GI50 [19]
COc1ccc(C(=O)/C=C/c2ccc(O)c(O)c2)c(OC)c1 | 5.21 µM (inactive) | 0.508 µM (active) | 15.1 µM (inactive) | 3.16 µM (inactive) | 0.638 µM (active) | 0.292 µM | 1.01 µM (active) | 3.99 µM (inactive) | 2.79 µM (inactive) | 0.242 µM (active) | 15.6 µM (inactive) | 0.834 µM (active) | 1.22 µM (inactive) | 0.337 µM (active) | 1.55 µM (inactive) | 6.14 µM (inactive) | 9.33 µM (inactive) |  | 
Cc1cccc(NC(=O)CSc2nnc(Cc3ccccc3)o2)c1 | > 100 µM (inactive) | > 100 µM (inactive) | > 100 µM (inactive) |  | > 100 µM (inactive) | > 100 µM | > 100 µM (inactive) | > 100 µM (inactive) | > 100 µM (inactive) | > 100 µM (inactive) | > 100 µM (inactive) | > 100 µM (inactive) | > 100 µM (inactive) |  |  | > 100 µM (inactive) | > 100 µM (inactive) | > 100 µM (inactive) | > 100 µM (inactive)
COc1cc2c(/C=C3/C(=O)Nc4ccccc43)c(Cl)n(Cc3ccc(Cl)cc3)c2cc1C | 0.323 µM (active) | 0.29 µM (active) | 0.256 µM (active) | 0.306 µM (active) | 0.264 µM (active) | 0.242 µM | 0.33 µM (active) | 0.296 µM (active) | 0.264 µM (active) | 0.207 µM (active) | 0.656 µM (active) | 0.27 µM (active) | 0.226 µM (active) | 0.209 µM (active) | 0.52 µM (active) | 0.565 µM (active) | 0.826 µM (active) |  | 
Brc1ccc(-c2[nH]c3ccccc3c2/N=N\c2ccccc2)cc1 | 18.2 µM (inactive) | > 10 µM (inactive) | 15 µM (inactive) | 17.5 µM (inactive) | 19 µM (inactive) | 16.3 µM | 16.5 µM (inactive) | 17.5 µM (inactive) | 16.9 µM (inactive) | 12.3 µM (inactive) | 18.7 µM (inactive) | 17.4 µM (inactive) | 17.3 µM (inactive) | 15.3 µM (inactive) | 16.7 µM (inactive) | 21.1 µM (inactive) | 16 µM (inactive) |  | 
COC(=O)C1C(O)C(C)C(O)C(C)(O)C=C(C)C2=C3C(=C(C)C(=O)c4c(O)c(c(C)c(OC(C)=O)c43)NC(=O)C(C)=C/C=C\C(C)(O)C(O)C(C)C1O)OCO2 (configuration not stated) | > 100 µM (inactive) | 49.8 µM (inactive) | 24.4 µM (inactive) | > 100 µM (inactive) | 35.5 µM (inactive) | > 100 µM | 80.2 µM (inactive) | 43.6 µM (inactive) | 67.6 µM (inactive) | 25.7 µM (inactive) | > 100 µM (inactive) | > 100 µM (inactive) | 94 µM (inactive) | 49.4 µM (inactive) | 67.9 µM (inactive) | > 100 µM (inactive) | 91.6 µM (inactive) |  | 
COc1cc(-c2n[nH]cc2CCCC(=O)Nc2ccccc2[N+](=O)[O-])ccc1O | > 100 µM (inactive) | 55.7 µM (inactive) | > 100 µM (inactive) |  | 45.3 µM (inactive) | 64.6 µM |  | 50.9 µM (inactive) | 42.2 µM (inactive) |  | > 100 µM (inactive) | 74.5 µM (inactive) | > 100 µM (inactive) | 46.9 µM (inactive) |  | > 100 µM (inactive) | 79.8 µM (inactive) | 25.4 µM (inactive) | 
CCOc1cc(NC(C)=O)ccc1C(=O)NN1C(=O)CSC1c1ccc(O)c(OC)c1 (configuration not stated) | > 100 µM (inactive) | 40.8 µM (inactive) | 33.1 µM (inactive) | > 100 µM (inactive) | 60.1 µM (inactive) | 40.8 µM | 42.9 µM (inactive) | 50.4 µM (inactive) | 23.8 µM (inactive) | 58.7 µM (inactive) | > 100 µM (inactive) | > 100 µM (inactive) | > 100 µM (inactive) | 50.9 µM (inactive) | 32.4 µM (inactive) | 6.67 µM (inactive) | 10.8 µM (inactive) |  | 
CC1CC[C@@]2(OC1)OC1C[C@H]3[C@@H]4CC[C@H]5CC(OC6OC(CO)C(O)C(OC7OC(CO)C(OC8OC(CO)C(O)C(OC9OC(CO)C(O)C(O)C9O)C8OC8OC(CO)C(O)C(O)C8O)C(O)C7O)C6O)[C@H](O)CC5(C)[C@H]4CCC3(C)C1[C@@H]2C (some centres not stated) | 1.88 µM (inactive) | 2.08 µM (inactive) | 1.95 µM (inactive) | 5.47 µM (inactive) | 5.14 µM (inactive) | 9.48 µM | 4.79 µM (inactive) | 9.04 µM (inactive) | 5.18 µM (inactive) | 0.9 µM (active) | 5.33 µM (inactive) | 1.87 µM (inactive) | 2.49 µM (inactive) | 1.11 µM (active) | 1.37 µM (inactive) | 5.57 µM (inactive) | 2 µM (inactive) |  | 
Clc1nc2c(C#Cc3ccccc3)ncnc2n1C1CCCCO1 (configuration not stated) | 11.6 µM (inactive) | 5.15 µM (inactive) | 15.4 µM (inactive) | 19 µM (inactive) | 10 µM (inactive) | 12.2 µM | 14 µM (inactive) | 12.1 µM (inactive) | 17.7 µM (inactive) | 14.8 µM (inactive) | 12.6 µM (inactive) | 14.3 µM (inactive) | 10.4 µM (inactive) | 4.37 µM (inactive) | 19.1 µM (inactive) | 20.5 µM (inactive) | 11.9 µM (inactive) |  | 
O=[N+]([O-])C(=C1c2ccccc2-c2ccccc21)[N+](=O)[O-] | > 100 µM (inactive) | 47.6 µM (inactive) | > 100 µM (inactive) |  | 38 µM (inactive) | > 10 µM | 57.5 µM (inactive) | > 100 µM (inactive) | 32.6 µM (inactive) | > 100 µM (inactive) | 91.2 µM (inactive) | > 100 µM (inactive) | > 100 µM (inactive) | > 100 µM (inactive) |  | > 100 µM (inactive) | 52.4 µM (inactive) |  | > 100 µM (inactive)
COc1cc(/C=C2/SC(c3ccccc3)N(c3ccccc3Cl)C2=O)cc(OC)c1OC (configuration not stated) | 25.9 µM (inactive) | 12.2 µM (inactive) | 23.3 µM (inactive) | 45 µM (inactive) | 23.7 µM (inactive) | 31.6 µM | 26.8 µM (inactive) | 30.1 µM (inactive) | 28.6 µM (inactive) | 27.9 µM (inactive) | 69.5 µM (inactive) | 19.7 µM (inactive) | 23.7 µM (inactive) | 23.8 µM (inactive) | 29.2 µM (inactive) | 69.5 µM (inactive) | 35.4 µM (inactive) |  | 
O=C1C2CC(Cl)C(SSC3CC4C(=O)N(SC(Cl)(Cl)C(Cl)Cl)C(=O)C4CC3Cl)CC2C(=O)N1SC(Cl)(Cl)C(Cl)Cl (configuration not stated) | 1.56 µM (inactive) | 0.249 µM (active) | 1.78 µM (inactive) | 2.6 µM (inactive) | 2.49 µM (inactive) | 1.29 µM | 5.04 µM (inactive) | 1.21 µM (inactive) | 0.192 µM (active) | 2.05 µM (inactive) | 17 µM (inactive) | 2.32 µM (inactive) | 1.91 µM (inactive) | 0.229 µM (active) | 2.25 µM (inactive) | 2.59 µM (inactive) | 1.94 µM (inactive) |  | 
COC(=O)c1cc(C#N)[nH]c1-c1ccc(Br)s1 | 14.5 µM (inactive) | 21.1 µM (inactive) | 14.1 µM (inactive) | 10.8 µM (inactive) | 13.5 µM (inactive) | 13.7 µM | 16.7 µM (inactive) | 9.73 µM (inactive) | 12.3 µM (inactive) | 3.58 µM (inactive) | 11.2 µM (inactive) | 12.8 µM (inactive) | 13.1 µM (inactive) | 16.8 µM (inactive) | 1.17 µM (inactive) | 13 µM (inactive) | 5.7 µM (inactive) |  | 
CCc1nc(N)nc(N)c1-c1ccc(NCCc2ccccc2)c([N+](=O)[O-])c1 | 0.211 µM (active) | 0.297 µM (active) | 1.11 µM (active) | 1.14 µM (inactive) | 0.0649 µM (active) | 0.108 µM | 1.33 µM (inactive) | 0.276 µM (active) | 0.491 µM (active) | 1.44 µM (inactive) | 17.2 µM (inactive) | 0.741 µM (active) | 1.34 µM (inactive) | 0.215 µM (active) | 4.51 µM (inactive) | 13.3 µM (inactive) | 1.86 µM (inactive) |  | 
O=c1cc(-c2ccc(O)cc2)oc2cc(O[C@@H]3O[C@H](CO)[C@@H](O)[C@H](O)[C@H]3O)cc(O)c12 [APIGETRIN] | > 100 µM (inactive) | 75.9 µM (inactive) | > 100 µM (inactive) | 58.3 µM (inactive) | 33.4 µM (inactive) | 16.6 µM | 13.9 µM (inactive) | > 100 µM (inactive) | 32.5 µM (inactive) | > 100 µM (inactive) | > 100 µM (inactive) | 48.5 µM (inactive) | > 100 µM (inactive) | 0.0752 µM (active) | 81.7 µM (inactive) | > 100 µM (inactive) | 43.2 µM (inactive) |  | 
O=C(Nc1cccc(C(F)(F)F)c1)c1cc(Br)cc(Br)c1O [FLUOROSALAN] | 3.63 µM (inactive) | 3.22 µM (inactive) | 3.18 µM (inactive) | 2.9 µM (inactive) | 2.32 µM (inactive) | 4.5 µM | 3.28 µM (inactive) | 4.94 µM (inactive) | 3.15 µM (inactive) | 2.24 µM (inactive) | 4.76 µM (inactive) | 3.55 µM (inactive) | 3.59 µM (inactive) | > 10 µM (inactive) | 3.24 µM (inactive) | 2.96 µM (inactive) | 2.35 µM (inactive) |  | 
